Patent US20070249603A1, “3-Arylsulfonyl-Quinolines as 5-Ht6 Receptor Antagonists for the Treatment of Cns Disorders” (priority 2004, published 2007)
Where a name gives a salt, the structure may show the parent alone.

Target: T1, human cloned 5-HT6 receptors (Homo sapiens, UniProt P50406)
T1 construct: expressed in transfected cells; host or cells: HeLa cells expressing cloned 5-HT6 receptor (membranes)
Assay: Cyclase assay (cAMP production in membranes of HeLa 5HT6 cells, antagonism of 5-HT)
Format: biochemical
Settings: antagonist potency, 5-HT at 4×EC50, functional Ki by Cheng-Prusoff from IC50, read-out: fpKi (negative log10 of the molar functional Ki) (converted)
Method: Compounds of the invention may be tested for in vitro biological activity in accordance with the following cyclase assay:
0.5 μl of test compound in 100% dimethylsulfoxide (DMSO) was added to a white, solid 384 well assay plate (for dose response measurements the top of the concentration range is 7.5 μM final). […]
cAMP production was then measured using the DiscoveRx™ HitHunter™ chemiluminescence cAMP assay kit (DiscoveRx Corporation, 42501 Albrae Street, Fremont, Calif. 94538; Product Code: 90-0004L) or any other suitable cAMP measurement assay.
IC50 values were estimated from arbitrary designated unit (ADU) measurements from a Perkin Elmer Viewlux instrument using a four parameter logistic curve fit within EXCEL (Bowen, W. P. and Jerman, J. C. (1995), Nonlinear regression using spreadsheets. Trends in Pharmacol. Sci., 16, 413-417). Functional Ki values were calculated using the method of Cheng, Y. C. and Prussof, W. H. (Biochemical Pharmacol (1973) 22 3099-3108). pI50 and fpKi are the negative log10 of the molar IC50 and functional Ki respectively.

T1 sequence (P50406 whole entry): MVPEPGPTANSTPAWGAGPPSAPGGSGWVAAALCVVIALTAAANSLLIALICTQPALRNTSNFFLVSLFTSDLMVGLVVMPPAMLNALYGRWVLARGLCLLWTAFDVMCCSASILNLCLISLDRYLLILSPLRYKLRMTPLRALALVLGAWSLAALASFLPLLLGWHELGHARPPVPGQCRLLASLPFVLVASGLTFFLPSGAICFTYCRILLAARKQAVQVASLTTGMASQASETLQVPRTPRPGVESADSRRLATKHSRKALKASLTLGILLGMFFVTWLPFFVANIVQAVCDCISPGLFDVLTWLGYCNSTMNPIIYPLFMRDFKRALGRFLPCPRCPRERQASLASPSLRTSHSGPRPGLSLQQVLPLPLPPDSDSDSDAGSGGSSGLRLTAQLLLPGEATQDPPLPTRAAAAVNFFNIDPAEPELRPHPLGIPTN

Ki: 158 nM
Structure (SMILES): CN(C)C1CCN(c2ccc(I)c3cc(S(=O)(=O)c4ccccc4)cnc23)CC1 [Example 13, 1-[5-Iodo-3-(phenylsulfonyl)-8-quinolinyl]-N,N-dimethyl-4-piperidinamine hydrochloride]
